Results reported in ChEMBL document CHEMBL1201862, “PubChem BioAssay data set” (2004).
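Growth conditions: 96-well plates. Treatment: test compound, 48 hours, 5 concentrations. Analysis: linear interpolation between bracketing concentrations; unreached endpoints set to highest concentration. Here, GI50 denotes the concentration required for 50% inhibition of growth.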 Calls of active or inactive are those of the source. Cut-off read from the data, not from the text of the source: active = GI50 up to about 1.1 µM and inactive = higher.

Columns and labels:
Assay in all cases: NCI-60 cell line screen, 48 h
SF-539 = system: SF-539
A549 = system: A549
Hs-578T = system: Hs-578T
PC-3 = system: PC-3
OVCAR-3 = system: OVCAR-3
ACHN = system: ACHN
UO-31 = system: UO-31
HCT-15 = system: HCT-15
NCI-H23 = system: NCI-H23
OVCAR-8 = system: OVCAR-8
SF-268 = system: SF-268
HOP-92 = system: HOP-92
U-251 = system: U-251
SF-295 = system: SF-295
SK-OV-3 = system: SK-OV-3
A498 = system: A498
HCC 2998 = system: HCC 2998
UACC-62 = system: UACC-62
HL-60 = system: HL-60

Structure (SMILES) | GI50 (SF-539) | GI50 (A549) | GI50 (Hs-578T) | GI50 (PC-3) | GI50 (OVCAR-3) | GI50 (ACHN) | GI50 (UO-31) | GI50 (HCT-15) [µM] | GI50 (NCI-H23) | GI50 (OVCAR-8) | GI50 (SF-268) | GI50 (HOP-92) | GI50 (U-251) | GI50 (SF-295) | GI50 (SK-OV-3) | GI50 (A498) | GI50 (HCC 2998) | GI50 (UACC-62) | GI50 (HL-60)
O=C(O)CCCCn1cnc2c(S)ncnc21 | > 100 µM (inactive) | > 100 µM (inactive) | > 100 µM (inactive) | > 100 µM (inactive) | > 100 µM (inactive) | > 100 µM (inactive) | > 100 µM (inactive) | > 100 | > 100 µM (inactive) | > 100 µM (inactive) | > 100 µM (inactive) | > 100 µM (inactive) | > 100 µM (inactive) | > 100 µM (inactive) | > 100 µM (inactive) | > 100 µM (inactive) | > 100 µM (inactive) | > 100 µM (inactive) | –
Cc1ccccc1OC(C)C(=O)NN1C(=O)CSC1c1ccccc1 (stereo not drawn) | > 100 µM (inactive) | 42 µM (inactive) | > 100 µM (inactive) | > 100 µM (inactive) | 58.7 µM (inactive) | 60.5 µM (inactive) | 63.2 µM (inactive) | 65.3 | 53.2 µM (inactive) | > 100 µM (inactive) | > 100 µM (inactive) | 47.8 µM (inactive) | 96.4 µM (inactive) | 56.2 µM (inactive) | > 100 µM (inactive) | 34.3 µM (inactive) | 63.2 µM (inactive) | 64.7 µM (inactive) | –
COc1ccc(-c2c(=O)[nH]n3c(=S)[nH]c(-c4ccccc4)nc23)cc1OC | – | 31.7 µM (inactive) | 29.7 µM (inactive) | 31.3 µM (inactive) | – | 23.3 µM (inactive) | 17 µM (inactive) | 17.3 | 21.3 µM (inactive) | 20.8 µM (inactive) | 19.4 µM (inactive) | 17.7 µM (inactive) | 17.5 µM (inactive) | 20.8 µM (inactive) | 25.1 µM (inactive) | 18.1 µM (inactive) | 18.5 µM (inactive) | 19.1 µM (inactive) | 18 µM (inactive)
N#Cc1nc(/C=C/c2ccccc2)oc1N | > 100 µM (inactive) | > 100 µM (inactive) | > 100 µM (inactive) | > 100 µM (inactive) | > 100 µM (inactive) | > 100 µM (inactive) | 7.26 µM (inactive) | > 100 | > 100 µM (inactive) | > 100 µM (inactive) | > 100 µM (inactive) | > 100 µM (inactive) | > 100 µM (inactive) | > 100 µM (inactive) | > 100 µM (inactive) | > 100 µM (inactive) | > 100 µM (inactive) | – | > 10 µM (inactive)
CCOc1c(Br)cc(Br)cc1C=C(C#N)C#N | 3.36 µM (inactive) | > 10 µM (inactive) | 3.67 µM (inactive) | > 10 µM (inactive) | > 10 µM (inactive) | 2.77 µM (inactive) | – | 2.96 | > 10 µM (inactive) | 3.42 µM (inactive) | 5.82 µM (inactive) | 4.19 µM (inactive) | 3.52 µM (inactive) | 7.53 µM (inactive) | > 10 µM (inactive) | 1.49 µM (inactive) | > 10 µM (inactive) | 6.08 µM (inactive) | 0.227 µM (active)
Oc1c([Si](c2ccccc2)(c2ccccc2)c2ccccc2)cc2ccccc2c1-c1c(O)c([Si](c2ccccc2)(c2ccccc2)c2ccccc2)cc2ccccc12 | > 100 µM (inactive) | > 100 µM (inactive) | > 100 µM (inactive) | > 100 µM (inactive) | – | > 100 µM (inactive) | > 100 µM (inactive) | > 100 | > 100 µM (inactive) | > 100 µM (inactive) | > 100 µM (inactive) | > 100 µM (inactive) | > 100 µM (inactive) | > 100 µM (inactive) | > 100 µM (inactive) | > 100 µM (inactive) | > 100 µM (inactive) | > 100 µM (inactive) | > 100 µM (inactive)
c1ccc(SCCc2ccncc2)cc1 | > 100 µM (inactive) | 84.5 µM (inactive) | > 100 µM (inactive) | > 100 µM (inactive) | 40.6 µM (inactive) | > 100 µM (inactive) | 45.4 µM (inactive) | > 100 | 67.6 µM (inactive) | > 100 µM (inactive) | > 100 µM (inactive) | 45.7 µM (inactive) | > 100 µM (inactive) | 39.5 µM (inactive) | > 100 µM (inactive) | 70 µM (inactive) | > 100 µM (inactive) | > 100 µM (inactive) | 50.6 µM (inactive)
CCCCOCCOC1=CC(=O)c2c(O)ccc(O)c2C1=O | 1.58 µM (inactive) | 1.75 µM (inactive) | 2.22 µM (inactive) | 2.59 µM (inactive) | 1.67 µM (inactive) | 1.72 µM (inactive) | 1.64 µM (inactive) | – | 1.7 µM (inactive) | – | 1.76 µM (inactive) | 2.56 µM (inactive) | 1.7 µM (inactive) | 1.66 µM (inactive) | > 10 µM (inactive) | 1.64 µM (inactive) | 1.88 µM (inactive) | 1.51 µM (inactive) | 0.506 µM (active)
